Values quoted from earlier work, collected in patent US6399745B1, “Use of leptin antagonists for treating insulin resistance in type II diabetes” (Aventis Pharma Deutschland GmbH, priority 1996, dated 2002).

Tested on: insulin receptor and insulin receptor substrate 1 (IRS-1)
Settings: rat 1 fibroblasts overexpressing human insulin receptor; cited from earlier work

For Leptin, the “insulin-induced phosphorylation of the insulin receptor and of IRS-1” value is listed as “decreases”.
